Reference: patent US9333202B2, “Non-retinoid antagonists for treatment of age-related macular degeneration and stargardt disease” (THE TRUSTEES OF COLUMBIA UNIVERSITY IN THE CITY OF NEW YORK, priority 2012, dated 2016)
Entries after “also recorded” stand apart in the source; their conditions may differ.

Columns and labels:
human RBP4 = biological target: T1, human RBP4 (Homo sapiens, UniProt P02753); assay: Scintillation proximity (SPA) RBP4 binding assay; details: for IC50: 10 nM 3H-retinol, 50 nM biotinylated RBP4, each value one experiment, read-out: IC50 in SPA-based RBP4 binding assay
T1 construct: Untagged human RBP4 purified from urine of tubular proteinuria patients; purchased Fitzgerald Industries International; host or cells: human urine (tubular proteinuria patients)
Protocol: Untagged human RBP4 purified from urine of tubular proteinuria patients was purchased from Fitzgerald Industries International. It was biotinylated using the EZ-Link Sulfo-NHS-LC-Biotinylation kit from Pierce following the manufacturer's recommendations. Binding experiments were performed in 96-well plates (OptiPlate, PerkinElmer) in a final assay volume of 100 μl per well in SPA buffer (1×PBS, pH 7.4, 1 mM EDTA, 0.1% BSA, 0.5% CHAPS). The reaction mix contained 10 nM ^3H-Retinol (48.7 Ci/mmol; PerkinElmer), 0.3 mg/well Streptavidin-PVT beads, 50 nM biotinylated RBP4 and a test compound. Nonspecific binding was determined in the presence of 20 μM of unlabeled retinol. The reaction mix was assembled in the dark under dim red light. The plates were sealed with clear tape (TopSeal-A: 96-well microplate, PerkinElmer), wrapped in the aluminum foil, and allowed to equilibrate 6 hours at room temperature followed by overnight incubation at +4° C. Radiocounts were measured using a TopCount NXT counter (Packard Instrument Company).

RBP4-TTR interaction [1] = biological target: T2, RBP4-TTR interaction (Homo sapiens, UniProt P02753); assay: HTRF/TR-FRET assay for retinol-dependent RBP4-TTR interaction (1 μM retinol); format: biochemical; parameters: human RBP4 fragment (amino acids 19-201) was expressed in the Gold(DE3)pLysS E. coli strain; made in house; host or cells: E. coli Gold(DE3)pLysS (Stratagene), pMAL-c4x vector; details: for IC50: in the presence of 1 μM retinol, each value one experiment, read-out: IC50 in HTRF-based retinol-dependent RBP4-TTR interaction assay
Description: Bacterially expressed MBP-RBP4 and untagged TTR were used in this assay. For the use in the TR-FRET assay the maltose binding protein (MBP)-tagged human RBP4 fragment (amino acids 19-201) was expressed in the Gold(DE3)pLysS E. coli strain (Stratagene) using the […] vector. Following cell lysis, recombinant RBP4 was purified from the soluble fraction using the ACTA FPLC system (GE Healthcare) equipped with the 5-ml the MBP Trap HP column. Human untagged TTR was purchased from Calbiochem. Untagged TTR was labeled directly with Eu^3+ Cryptate-NHS using the HTRF Cryptate Labeling kit from CisBio following the manufacturer's recommendations. HTRF assay was performed in white low volume 384 well plates (Greiner-Bio) in a final assay volume of 16 μl per well. The reaction buffer contained 10 mM Tris-HCl pH 7.5, 1 mM DTT, 0.05% NP-40, 0.05% Prionex, 6% glycerol, and 400 mM KF. Each reaction contained 60 nM MBP-RBP4 and 2 nM TTR-Eu along with 26.7 nM of anti-MBP antibody conjugated with d2 (Cisbio). Titration of test compounds in this assay was conducted in the presence of 1 μM retinol. All reactions were assembled in the dark under dim red light and incubated overnight at +4° C. wrapped in aluminum foil. TR-FRET signal was measured in the SpectraMax M5e Multimode Plate Reader (Molecular Device). Fluorescence was excited at 337 nm and two readings per well were taken: Reading 1 for time-gated energy transfer from Eu(K) to d2 (337 nm excitation, 668 nm emission, counting delay 75 microseconds, counting window 100 microseconds) and Reading 2 for Eu(K) time-gated fluorescence (337 nm excitation, 620 nm emission, counting delay 400 microseconds, counting window 400 microseconds). The TR-FRET signal was expressed as the ratio of fluorescence intensity: Flu665/Flu620×10,000.

RBP4-TTR interaction [2] = biological target: T2, RBP4-TTR interaction; assay: TR-FRET (HTRF) assay for antagonists of retinol-induced RBP4-TTR interaction, agonist and antagonist mode (Example 2); format: biochemical; parameters: made in house; host or cells: E. coli; details: agonist mode, dose titration
Description: TR-FRET (Time-Resolved Fluorescence Resonance Energy Transfer) is an assay format that can be used in characterization of compounds affecting protein-protein interactions (31-33). […] In the presence of retinol, RBP4-TTR interaction induces FRET that can be registered as increased ratio of […] fluorescence signals. Binding of a desired RBP4 antagonist displaces retinol and induces hindrance for RBP4-TTR interaction resulting in the decreased FRET signal (FIG. 7).
The assay was developed using E. coli-expressed MBP-tagged RBP4 and commercially available TTR labeled directly with Eu3+ cryptate. In addition to MBP-RBP4 and Eu3+ (K)-TTR, a detector reagent anti-MBP-d2 was present in the mix. The assay was first optimized in the agonist mode; sensitivity and dynamic range of the assay was […] in respect to RBP4, TTR and detection reagent concentrations.

| Structure (SMILES) | Binding to RBP4 in vitro (in words) (human RBP4) | IC50 (human RBP4) [nM] | Antagonism of RBP4-TTR interaction in vitro (in words) (RBP4-TTR interaction [1]) | IC50 (RBP4-TTR interaction [1]) [nM] | Induction of RBP4-TTR interaction (RBP4-TTR interaction [2]) |
| --- | --- | --- | --- | --- | --- |
| O=C(c1c[nH]cn1)N1CCC(c2ccccc2C(F)(F)F)CC1 [Compound 48] | bind to RBP4 | 5.68 | antagonize retinol-dependent RBP4-TTR interaction | 106 | – |
| CS(=O)(=O)c1ccc(NC(=O)N2CCC(c3ccccc3C(F)(F)F)CC2)c(C(=O)O)c1 [Compound 64] | bind to RBP4 | 49.8 | antagonize retinol-dependent RBP4-TTR interaction; also recorded: antagonize RBP4-TTR interaction in vitro at biologically significant concentrations | 1270 | – |
| O=C(O)c1cnccc1NC(=O)N1CCC(c2ccccc2C(F)(F)F)CC1 [Compound 65] | bind to RBP4 | 19.9 | antagonize retinol-dependent RBP4-TTR interaction; also recorded: antagonize RBP4-TTR interaction in vitro at biologically significant concentrations | 199 | – |
| CC1=C(/C=C/C(C)=C/C=C/C(C)=C/C(=O)Nc2ccc(O)cc2)C(C)(C)CCC1 [fenretinide, N-(4-hydroxy-phenyl)retinamide] | – | – | – | – | did not induce RBP4-TTR interaction |
